# Measurements reported in patent publication US9499550B2 (BRISTOL-MYERS SQUIBB COMPANY, priority 2012, dated 2016).
# Tests used:
# [1] = test system: HCV genotype 1a (H77 strain) replicon in HUH-7 cells; experiment: HCV replicon luciferase reporter assay, genotype 1a; assay type: cell-based; details: Hepatitis C virus, Huh-7, 72 h, HCV genotype 1a replicon luciferase assay, 3 days incubation, range class, read-out: LE_1a (EC50, range)
# In short: (§1)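 Replicon inhibition for both genotypes was measured as Renilla luciferase signal (EnduRen, 7.5 μM final, 2 h) after 3-day, 37° C exposure of replicon-bearing HUH-7 cells in 4% FCS DMEM, 0.5% DMSO. The 1b construct carries S1179I; the 1a H77 construct carries P1496L and S2204I. Twenty-point, 3-fold dilutions were fitted four-parametrically for EC50, and CC50 was taken from multiplexed Cell Titer-Blue.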
# [2] = test system: HCV genotype 1b (Con1) replicon in HUH-7 cells; experiment: HCV replicon luciferase reporter assay, genotype 1b; assay type: cell-based; details: Hepatitis C virus, Huh-7, 72 h, HCV genotype 1b replicon luciferase assay, 3 days incubation, range class, read-out: LE_1b (EC50, range)
# In short: as §1
Compound,EC50 [1],EC50 [2]
"CCCOc1cc2c(Cl)cccc2c(O[C@@H]2C[C@H]3C(=O)N[C@]4(C(=O)NS(=O)(=O)C5CC5)C[C@H]4/C=C\CC[C@@H](C)C[C@@H](C)[C@H](NC(=O)OC(C)(C)C)C(=O)N3C2)n1 [Compound 1070, tert-butyl ((2R,6S,7R,9R,13aS,14aR,16aS,Z)-2-((5-chloro-3-propoxyisoquinolin-1-yl)oxy)-14a-((cyclopropylsulfonyl)carbamoyl)-7,9-dimethyl-5,16-dioxo-1,2,3,5,6,7,8,9,10,11,13a,14,14a,15,16,16a-hexadecahydrocyclopropa[e]pyrrolo[1,2-a][1,4]diazacyclopentadecin-6-yl)carbamate]",< 5.46 nM,< 5.46 nM
"CCCOc1cc2c(Cl)cccc2c(O[C@@H]2C[C@H]3C(=O)N[C@]4(C(=O)NS(=O)(=O)C5(C)CC5)C[C@H]4/C=C\CC[C@H](C)C[C@@H](C)[C@H](NC(=O)OC(C)(C)C)C(=O)N3C2)n1 [Compound 1071, tert-butyl ((2R,6S,7R,9S,13aS,14aR,16aS,Z)-2-((5-chloro-3-propoxyisoquinolin-1-yl)oxy)-7,9-dimethyl-14a-(((1-methylcyclopropyl)sulfonyl)carbamoyl)-5,16-dioxo-1,2,3,5,6,7,8,9,10,11,13a,14,14a,15,16,16a-hexadecahydrocyclopropa[e]pyrrolo[1,2-a][1,4]diazacyclopentadecin-6-yl)carbamate]",< 5.46 nM,< 5.46 nM
"CCCOc1cc2c(Cl)cccc2c(O[C@@H]2C[C@H]3C(=O)N[C@]4(C(=O)NS(=O)(=O)C5(C)CC5)C[C@H]4/C=C\CC[C@@H](C)C[C@@H](C)[C@H](NC(=O)OC(C)(C)C)C(=O)N3C2)n1 [Compound 1072, tert-butyl ((2R,6S,7R,9R,13aS,14aR,16aS,Z)-2-((5-chloro-3-propoxyisoquinolin-1-yl)oxy)-7,9-dimethyl-14a-(((1-methylcyclopropyl)sulfonyl)carbamoyl)-5,16-dioxo-1,2,3,5,6,7,8,9,10,11,13a,14,14a,15,16,16a-hexadecahydrocyclopropa[e]pyrrolo[1,2-a][1,4]diazacyclopentadecin-6-yl)carbamate]",< 5.46 nM,< 5.46 nM
"C[C@H]1CC/C=C\[C@@H]2C[C@@]2(C(=O)NS(=O)(=O)C2(C)CC2)NC(=O)[C@@H]2C[C@@H](Oc3nc(OCC(F)F)cc4c(Cl)cccc34)CN2C(=O)[C@@H](NC(=O)OC(C)(C)C)[C@H](C)C1 [Compound 1073, tert-butyl ((2R,6S,7R,9S,13aS,14aR,16aS,Z)-2-((5-chloro-3-(2,2-difluoroethoxyl)isoquinolin-1-yl)oxy)-7,9-dimethyl-14a-(((1-methylcyclopropyl)sulfonyl)carbamoyl)-5,16-dioxo-1,2,3,5,6,7,8,9,10,11,13a,14,14a,15,16,16a-hexadecahydrocyclopropa[e]pyrrolo[1,2-a][1,4]diazacyclopentadecin-6-yl)carbamate]",< 5.46 nM,< 5.46 nM
"C[C@@H]1CC/C=C\[C@@H]2C[C@@]2(C(=O)NS(=O)(=O)C2(C)CC2)NC(=O)[C@@H]2C[C@@H](Oc3nc(OCC(F)F)cc4c(Cl)cccc34)CN2C(=O)[C@@H](NC(=O)OC(C)(C)C)[C@H](C)C1 [Compound 1074, tert-butyl ((2R,6S,7R,9R,13aS,14aR,16aS,Z)-2-((5-chloro-3-(2,2-difluoroethoxyl)isoquinolin-1-yl)oxy)-7,9-dimethyl-14a-(((1-methylcyclopropyl)sulfonyl)carbamoyl)-5,16-dioxo-1,2,3,5,6,7,8,9,10,11,13a,14,14a,15,16,16a-hexadecahydrocyclopropa[e]pyrrolo[1,2-a][1,4]diazacyclopentadecin-6-yl)carbamate]",< 5.46 nM,< 5.46 nM
